# Where two headings read alike, the source gives them in different places.
# Experiments:
# HIV-1 clinical isolates = experiment: Inhibition of clinical isolates in PBMCs; format: cell-based; settings: Human immunodeficiency virus 1, PBMC
# Procedure: Human peripheral blood mononuclear cells (PBMCs) were infected with isolates, and virus yields were measured by determining extracellular p24 protein levels (Table 4). […] These isolates were also examined in the NLRepRlucP373S virus by replacement of the gag/pr genes with those from these clinical isolates.
# Peripheral blood mononuclear cells (BioReclamation, Westbury, NY) were cultured at 37°C and 5% CO2 in RPMI 1640 medium with 20% fetal bovine serum (Gibco Laboratories), 100 units/mL of penicillin G, 100 units/mL of streptomycin (Gibco Laboratories), and 1 ng/mL of recombinant human interleukin-2 (Invitrogen, Carlsbad, CA). Peripheral blood mononuclear cells were stimulated with 2 μg/mL of phytohemagglutinin (Sigma-Aldrich, St. Louis, MO) for 2 days before infection with HIV-1 clinical isolates.
# (§1) Multiple-cycle assays using recombinant viruses or clinical isolates were used to assess MI antiviral activity as described previously ([10]). pNLRepRlucP373S (the P373S change is in the Gag gene and converts an outlier polymorphism in the NL4-3 gene to the prevalent amino acid in the population) plasmids containing SDMs in Gag or gag/pr regions from clinical isolates were transfected into HEK 293T cells, and the supernatant containing recombinant virus was harvested after 4 to 5 days. Virus was used to infect MT-2 cells in the presence of a 3-fold serially diluted compound at a final dimethyl sulfoxide (DMSO) concentration of 1%. The inocula of the reporter viruses were determined based on the luciferase activity detected on day 4 postinfection. The MOI (ratio of infectious virions to target cells) of reporter-free laboratory strains and clinical isolates was 0.005, as derived from a tissue culture infectious dose study. Clinical isolates or reporter-free viruses were examined in the reporter CEM-NKR-CCR5-Luc cells or PBMCs at MOIs ranging from 0.005 to 0.01. Each infection started with a drug-free preincubation of the cell-virus mixtures, performed at 37°C and 5% CO2 for either 1 h at 2 times the final cell density (reporter viruses) or 1 h (reporter-free laboratory strains) or 3 h (clinical isolates) using cell pellets in 0.5 mL of medium. After preincubation, cell-virus mixtures were added to compound-containing 96-well plates for a final cell density of either 10,000 (MT-2 cells for reporter viruses), 20,000 (MT-2 and PM1 cells for reporter-free laboratory strains), 200,000 (PBMCs for clinical isolates), or 500,000 (CEM-NKR-CCR5-Luc for reporter-free laboratory strains) cells per well. The CEM-NKR-CCR5-Luc cell assay was performed in the presence of Polybrene (10 μg/mL). Virus growth was determined on days 4 to 5 postinfection for reporter variants or days 5 to 11 for the other viruses. The reporter viruses were detected by a luciferase assay according to manufacturer protocols (Brite-Glo luciferase kit [Promega] for CEM-NKR-CCR5-Luc cells and Dual-Luciferase Reporter 1000 assay system [Promega] for the other cells), and luminescence was detected on a Wallac Trilux. The growth of clinical isolates in PBMCs was quantitated by reverse transcriptase activity in a 96-well scintillation proximity assay (SPA). Twenty microliters of culture supernatants was mixed with 40 μL of reaction cocktail (62.5 mM Tris-HCl [pH 7.8], 100 mM KCl, 0.0625% NP-40, 2.5 mM dithiothreitol [DTT], 6.25 mM MgCl2, 1 mM EGTA, 6.25 μg/mL of poly rA, 2.5 μg/mL of streptavidin SPA beads prebound with biotinylated-dT12-18, and 1 μCi of [^3H]TTP). Mixtures were incubated at 37°C for ∼3 h and quenched with 100 μl of 0.25 M EDTA per well. Luminescence was detected on a Wallac Trilux programmed for tritium counting with SPA beads in opaque plates. The growth of the reporter-free laboratory M-tropic strains and clinical isolates was monitored by a p24 enzyme-linked immunosorbent assay (ELISA; PerkinElmer Life Sciences, Waltham, MA) performed on culture supernatants.
# [1] = tested on: NLRepRlucP373S-based viruses; experiment: microbe, parasite or virus in culture; format: cell-based, HIV-1; settings: for EC50 / EC90: 10% FBS + 40% HS + 27 mg/mL of HSA
# HIV-1 laboratory strains [2] = experiment: Laboratory strains, luciferase activity in CEM-NKR-CCR5-Luc cells; format: cell-based
# Procedure: (§2) Virus yields were measured in dose-response experiments by either luciferase activity in human T-cells (CEM-NKR-CCR5-Luc), extracellular reverse transcriptase activity in MT-2 cells (T-tropic viruses), or extracellular p24 antigen in PM1 cells (M-tropic viruses).
# as §1
# (§3) Maximal percent inhibition values were calculated as MPI = 100 – (mean signals at the 2 highest concentrations of compound/mean signal of 2 no-drug control wells) × 100.
# HIV-1 laboratory strains [3] = experiment: Laboratory strains, reverse transcriptase activity in MT-2 cells; format: cell-based
# Procedure: as §2, §1, §3
# HIV-2 strains = experiment: HIV-2 strains, reverse transcriptase activity in MT-2 cells; format: cell-based
# Procedure: as §2
# as §1, with “After preincubation, cell-virus mixtures were added to compound-containing 96-well plates for a final cell density of either 10,000 (MT-2 cells for reporter viruses), 20,000 (MT-2 and PM1 cells for reporter-free laboratory strains), 200,000 (PBMCs for clinical isolates), or 500,000 (CEM-NKR-CCR5-Luc for reporter-free laboratory strains) cells per well. The CEM-NKR-CCR5-Luc cell assay was performed in the presence of Polybrene (10 μg/mL).” left out, “Twenty microliters of culture supernatants was mixed with 40 μL of reaction cocktail (62.5 mM Tris-HCl [pH 7.8], 100 mM KCl, 0.0625% NP-40, 2.5 mM dithiothreitol [DTT], 6.25 mM MgCl2, 1 mM EGTA, 6.25 μg/mL of poly rA, 2.5 μg/mL of streptavidin SPA beads prebound with biotinylated-dT12-18, and 1 μCi of [^3H]TTP). Mixtures were incubated at 37°C for ∼3 h and quenched with 100 μl of 0.25 M EDTA per well.” left out
# as §3
# HIV-1 = tested on: HIV-1; set-up: method as in PMID 30352054; settings: in combination with emtricitabine and tenofovir disoproxil fumarate; cited from earlier work
# [4] = read-out: Mean EC50, subtype A 92UG037
# [5] = read-out: Mean EC50, subtype A 93RW029
# [6] = read-out: Mean EC50, subtype A 93RW034
# [7] = read-out: Mean EC50, subtype AE 93TH023
# [8] = read-out: Mean EC50, subtype AE 93TH053
# [9] = read-out: Mean EC50, subtype AE CMU010
# [10] = read-out: Mean EC50, subtype B 92BR003
# [11] = read-out: Mean EC50, subtype B 92BR018
# [12] = read-out: Mean EC50, subtype B 93BR009
# [13] = read-out: Mean EC50, subtype B 93BR013
# [14] = read-out: Mean EC50, subtype B 93BR017
# [15] = read-out: Mean EC50, subtype C 93MW960
# [16] = read-out: Mean EC50, subtype C 97ZA012
# [17] = read-out: Mean EC50, subtype C 98BR004
# [18] = read-out: Mean EC50, subtype C 10215-6
# [19] = read-out: Mean EC50, subtype C 20706-3
# [20] = read-out: Mean EC50, subtype C MJ4
# [21] = Human immunodeficiency virus 1, HS27, V370A
# [22] = Human immunodeficiency virus 1, HS27, Wild type
# [23] = Human immunodeficiency virus 1, HS27, ΔV370
# [24] = Human immunodeficiency virus 1, NL43, MT2, NL4-3, second value in cell, read-out: EC50 (converted)
# [25] = Human immunodeficiency virus 2, MT2, HIV-2 287
# [26] = Human immunodeficiency virus 2, MT2, HIV-2 ROD, second value in cell
smiles,measurement,setting,value
C=C(C)[C@@H]1CC[C@]2(NCCN3CCS(=O)(=O)CC3)CC[C@]3(C)[C@H](CC[C@@H]4[C@@]5(C)CC=C(C6=CC[C@@](CF)(C(=O)O)CC6)C(C)(C)[C@@H]5CC[C@]43C)[C@@H]12 [GSK’254],EC50,HIV-1 clinical isolates; [4],5 nM
same,EC50,HIV-1 clinical isolates; [5],3 nM
same,EC50,HIV-1 clinical isolates; [6],1 nM
same,EC50,HIV-1 clinical isolates; [7],1 nM
same,EC50,HIV-1 clinical isolates; [8],5 nM
same,EC50,HIV-1 clinical isolates; [9],3 nM
same,EC50,HIV-1 clinical isolates; [10],2 nM
same,EC50,HIV-1 clinical isolates; [11],77 nM
same,EC50,"HIV-1 clinical isolates; read-out: Mean EC50, subtype B 93BR008",50 nM
same,EC50,HIV-1 clinical isolates; [12],1 nM
same,EC50,HIV-1 clinical isolates; [13],3 nM
same,EC50,HIV-1 clinical isolates; [14],1 nM
same,EC50,"HIV-1 clinical isolates; read-out: Mean EC50, subtype B 93US143",2 nM
same,EC50,HIV-1 clinical isolates; [15],9 nM
same,EC50,HIV-1 clinical isolates; [16],3 nM
same,EC50,HIV-1 clinical isolates; [17],1 nM
same,EC50,HIV-1 clinical isolates; [18],1 nM
same,EC50,HIV-1 clinical isolates; [19],4 nM
same,EC50,HIV-1 clinical isolates; [20],3 nM
same,EC50,"HIV-1 clinical isolates; read-out: mean EC50, subtype A/AE isolates",3 nM
same,EC50,"HIV-1 clinical isolates; read-out: mean EC50, subtype B isolates",19 nM
same,EC50,"HIV-1 clinical isolates; read-out: mean EC50, subtype C isolates",3.5 nM
same,EC50,[1]; [21],9.1 nM
same,EC90,[1]; [21],42.2 nM
same,EC50,[1]; [22],12.3 nM
same,EC90,[1]; [22],26.1 nM
same,EC50,[1]; [23],38.2 nM
same,EC90,[1]; [23],195 nM
same,average potency decrease in human serum,"[1]; average of WT, V370A and ΔV370 viruses",7.9 fold
same,EC50,"HIV-1 laboratory strains [2]; Human immunodeficiency virus 1, 8 HIV-1 laboratory strains (luciferase or p24 endpoints), read-out: mean (standard error of the mean) EC50",0.8 nM
same,EC50,"HIV-1 laboratory strains [2]; Human immunodeficiency virus 1, 8 HIV-1 laboratory strains, read-out: EC50 range",0.3 to 1.2 nM
same,EC50,"HIV-1 laboratory strains [2]; Human immunodeficiency virus 1, HXB2, HXB2, T tropic, read-out: EC50 ± SD",0.7 ± 0.1 nM
same,EC50,"HIV-1 laboratory strains [2]; Human immunodeficiency virus 1, IIIB, IIIB, T tropic, read-out: EC50 ± SD",0.6 ± 0.4 nM
same,EC50,"HIV-1 laboratory strains [2]; Human immunodeficiency virus 1, LAI, T tropic, read-out: EC50 ± SD",0.7 ± 0.1 nM
same,EC50,"HIV-1 laboratory strains [2]; Human immunodeficiency virus 1, MN, T tropic, read-out: EC50 ± SD",0.3 nM
same,EC50,"HIV-1 laboratory strains [2]; Human immunodeficiency virus 1, NL43, NL4-3, T tropic, read-out: EC50 ± SD",0.9 ± 0.2 nM
same,EC50,"HIV-1 laboratory strains [2]; Human immunodeficiency virus 1, RF, T tropic, read-out: EC50 ± SD",0.9 ± 0.15 nM
same,EC50,"HIV-1 laboratory strains [2]; Human immunodeficiency virus 1, reporter cell line, read-out: EC50 values for T-tropic HIV-1",< 1 nM
same,EC50,HIV-1 laboratory strains [3]; [24],7.3 nM
same,EC50,HIV-2 strains; [25],> 1390 nM
same,EC50,HIV-2 strains; [26],2.5 nM
"C=C(C)[C@@H]1CC[C@]2(NCCN3CCS(=O)(=O)CC3)CC[C@]3(C)[C@H](CC[C@@H]4[C@@]5(C)CC=C(c6ccc(C(=O)O)cc6)C(C)(C)[C@@H]5CC[C@]43C)[C@@H]12 [GSK’795, reference compound]",EC50,HIV-1 clinical isolates; [4],2 nM
same,EC50,HIV-1 clinical isolates; [5],6 nM
same,EC50,HIV-1 clinical isolates; [6],2 nM
same,EC50,HIV-1 clinical isolates; [7],533 nM
same,EC50,HIV-1 clinical isolates; [8],18 nM
same,EC50,HIV-1 clinical isolates; [9],35 nM
same,EC50,HIV-1 clinical isolates; [10],4 nM
same,EC50,HIV-1 clinical isolates; [11],145 nM
same,EC50,HIV-1 clinical isolates; [12],2 nM
same,EC50,HIV-1 clinical isolates; [13],9 nM
same,EC50,HIV-1 clinical isolates; [14],10 nM
same,EC50,HIV-1 clinical isolates; [15],1580 nM
same,EC50,HIV-1 clinical isolates; [16],4 nM
same,EC50,HIV-1 clinical isolates; [17],1 nM
same,EC50,HIV-1 clinical isolates; [18],13 nM
same,EC50,HIV-1 clinical isolates; [19],4 nM
same,EC50,HIV-1 clinical isolates; [20],7 nM
same,EC50,"HIV-1 clinical isolates; read-out: mean EC50 toward clinical isolates, panel of HIV-1 clinical isolates, subtypes A, B, C, CRF01_AE",138 nM
same,EC50,"HIV-1 laboratory strains [3]; Human immunodeficiency virus 1, HXB2, MT2, HXB2, footnote b: RT activity in MT-2 cells, read-out: GSK’795 EC50 ± SD",9.3 ± 3.9 nM
same,EC50,"HIV-1 laboratory strains [3]; Human immunodeficiency virus 1, IIIB, MT2, IIIB, footnote b: RT activity in MT-2 cells, read-out: GSK’795 EC50 ± SD",2.5 ± 0.8 nM
same,EC50,"HIV-1 laboratory strains [3]; Human immunodeficiency virus 1, MT2, LAI, footnote b: RT activity in MT-2 cells, read-out: GSK’795 EC50 ± SD",2.4 ± 0.8 nM
same,EC50,"HIV-1 laboratory strains [3]; Human immunodeficiency virus 1, MT2, MN, footnote b: RT activity in MT-2 cells, read-out: GSK’795 EC50 ± SD",1 nM
same,EC50,"HIV-1 laboratory strains [3]; Human immunodeficiency virus 1, MT2, RF, head footnote b: RT activity in MT-2 cells unless otherwise noted, read-out: GSK’795 EC50 ± SD",6.9 ± 2.8 nM
same,EC50,"HIV-1 laboratory strains [3]; Human immunodeficiency virus 1, NL43, MT2, NL4-3, first value in cell, footnote b: RT activity in MT-2 cells, read-out: GSK’795 EC50 ± SD",3.9 ± 2.2 nM
same,EC50,HIV-1 laboratory strains [3]; [24],19 nM
same,gastrointestinal adverse events,HIV-1,a number of gastrointestinal adverse events
same,EC50,HIV-2 strains; [25],751 nM
same,EC50,HIV-2 strains; [26],17 nM

# — paper PMC8765437, “GSK3640254 Is a Novel HIV-1 Maturation Inhibitor with an Optimized Virology Profile” (Antimicrobial Agents and Chemotherapy, 2022)
